Drawing on ChEMBL document CHEMBL5614442, “Discovery, synthesis and biological evaluation of novel isoquinoline derivatives as potent indoleamine 2, 3-dioxygenase 1 and tryptophan 2, 3-dioxygenase dual inhibitors” (Eur J Med Chem, 2024), this text covers IC50 and inhibition for 39 compounds.

Activity calls are given as the source filed them. No cut-off for these calls is given here.

Assay [1] has as its target T1, Indoleamine 2,3-dioxygenase 1 (Homo sapiens, UniProt P14902). The assay is described as follows: Inhibition of N-terminal His-tagged recombinant human IDO1 extracted from Escherichia coli Transetta (DE3) using L-tryptophan as substrate preincubated for 5 mins followed by substrate addition and measured after 1 hrs by absorbance based microplate reader.
Target sequence in this assay (P14902 whole entry): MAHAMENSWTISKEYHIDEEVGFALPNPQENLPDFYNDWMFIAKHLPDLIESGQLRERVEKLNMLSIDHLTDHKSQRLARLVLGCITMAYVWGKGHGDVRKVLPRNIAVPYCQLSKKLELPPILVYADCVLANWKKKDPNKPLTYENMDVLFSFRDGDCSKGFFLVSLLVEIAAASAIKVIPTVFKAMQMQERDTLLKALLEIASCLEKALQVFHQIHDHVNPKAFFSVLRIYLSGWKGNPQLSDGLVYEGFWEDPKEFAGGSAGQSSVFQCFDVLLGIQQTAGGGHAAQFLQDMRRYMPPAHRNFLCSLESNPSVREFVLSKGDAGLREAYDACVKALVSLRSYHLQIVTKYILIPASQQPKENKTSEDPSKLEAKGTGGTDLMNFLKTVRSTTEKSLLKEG
Assay [2] has as its target T2, Tryptophan 2,3-dioxygenase (Homo sapiens, UniProt P48775).
Target sequence in this assay (P48775 whole entry): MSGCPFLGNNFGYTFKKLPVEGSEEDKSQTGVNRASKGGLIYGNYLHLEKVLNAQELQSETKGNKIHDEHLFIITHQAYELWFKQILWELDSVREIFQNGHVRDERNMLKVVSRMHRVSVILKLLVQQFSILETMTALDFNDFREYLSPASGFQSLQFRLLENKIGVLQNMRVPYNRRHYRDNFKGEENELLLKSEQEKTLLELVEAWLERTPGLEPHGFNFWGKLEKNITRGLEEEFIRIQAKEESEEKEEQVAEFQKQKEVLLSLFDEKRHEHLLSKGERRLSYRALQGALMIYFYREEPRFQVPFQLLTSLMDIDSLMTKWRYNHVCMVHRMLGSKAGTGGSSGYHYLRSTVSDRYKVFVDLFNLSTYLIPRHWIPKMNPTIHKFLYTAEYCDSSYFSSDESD
The target of assay [3] is T1, Indoleamine 2,3-dioxygenase 1. The assay is described as follows: Inhibition of IDO1 in IFN-gamma induced human HeLa cells using L-tryptophan as substrate incubated for 24 hrs by absorbance based microplate analysis. Format: cell-based.
Target sequence in this assay (P14902 whole entry): as the sequence (P14902 whole entry) above
Assay [4] addresses T2, Tryptophan 2,3-dioxygenase. The source holds these as a separate data set.
Target sequence in this assay (P48775 whole entry): as the sequence (P48775 whole entry) above
The target in assay [5] is T2, Tryptophan 2,3-dioxygenase. The assay can be described thus: Inhibition of TDO (unknown origin).
The target of assay [6] is T1, Indoleamine 2,3-dioxygenase 1. The assay is described as follows: Inhibition of IDO1 (unknown origin).

On to `COc1ccc2nc(-c3ccccc3)ncc2c1O`, for which the 50% inhibitory concentration (IC50) in assay [1] and in assay [2] was above 100 µM each time.
As for `COc1ccc2cc(C34C[C@H]5C[C@@H](C3)C[C@@H](C4)C5)ncc2c1OC`, the IC50 stood at 17.8 µM in assay [1] and 2.64 µM in assay [2].
The matching figures for `COc1ccc2cc(-c3ccc(C(F)(F)F)cc3)ncc2c1O`: 15.3 µM and 7.28 µM.
Consider `COc1ccc2cc(-c3ccccc3)ncc2c1O`, for which the IC50 in assay [3] amounted to 17.1 µM; in assay [1], 0.89 µM; in assay [2], 0.24 µM; in assay [4] it was 24 µM.
With `COc1ccc2cc(-c3ccc(NC(=O)C(F)(F)F)cc3)ncc2c1O`, the results for the IC50 in assay [1] and in assay [2] were 6.13 µM and 1.16 µM, respectively.
With `COc1ccc2cc(-c3ccc(NC(=O)c4ccc(C(F)(F)F)cc4)cc3)ncc2c1O`, the 50% inhibitory concentration (IC50) in assay [1] was above 100 µM; in assay [2], 3.25 µM.
Consider `COc1ccc2cc3[n+](cc2c1O)CCc1cc2c(cc1-3)OCO2`, for which the inhibition result in assay [5] and in assay [6] was “Active” each time.
For `COc1ccc2cc(-c3ccc(Br)cc3)ncc2c1OC`, the concentration for half-maximal inhibition (IC50) in assay [1] came out at 78.6 µM; in assay [2], 34.3 µM.
Consider `COc1ccc2cc(-c3ccc(C(C)(C)C)cc3)ncc2c1OC`, for which the IC50 was above 100 µM in assay [1] and 23.1 µM in assay [2].
As to `COc1ccc2cc(-c3ccc(NC(=O)c4ccc(F)cc4)cc3)ncc2c1O`, the half-maximal inhibitory concentration (IC50) in assay [1] and in assay [2] was above 100 µM throughout.
In the case of `COc1ccc2cc(-c3cc4ccccc4o3)ncc2c1OC`, the half-maximal inhibitory concentration (IC50) in assay [1] and in assay [2] was above 100 µM in each case.
Regarding `COc1ccc2cc(-c3ccc(NS(=O)(=O)N4CCCCC4)cc3)ncc2c1O`, the values for the half-maximal inhibitory concentration (IC50) in assay [1] and in assay [2] were 15.4 µM and 7.97 µM, respectively.
The matching figures for `COc1ccc2cc(-c3ccc(C)cc3)ncc2c1OC`: above 100 µM and above 100 µM.
For `COc1ccc2cc(-c3ccccc3)ncc2c1OC`, the half-inhibitory concentration (IC50) is above 30 µM in assay [3], 7.81 µM in assay [1], 0.34 µM in assay [2] and above 30 µM in assay [4].
Consider `Oc1cccc2cc(-c3ccccc3)ncc12`, for which the IC50 in assay [1] turned out to be 70.5 µM; in assay [2], 25 µM.
Regarding `COc1ccc2cc(-c3ccc(F)cc3)ncc2c1OC`, the concentration for half-maximal inhibition (IC50) in assay [1] was 42.6 µM; in assay [2], 9.08 µM.
Turning to `COc1ccc2cc(-c3ccc(NS(C)(=O)=O)cc3)ncc2c1O`, the half-maximal inhibitory concentration (IC50) in assay [3] amounted to 23 µM; in assay [1] it was 1.24 µM; in assay [2], 0.2 µM; in assay [4] it was 14.8 µM.
As to `COc1ccc2cc3[n+](cc2c1OC)CCc1cc2c(cc1-3)OCO2` [BERBERINE], the IC50 amounted to 0.03 µM in assay [5] and 0.26 µM in assay [6].
Turning to `COc1ccc2cc(-c3ccc(NC(=O)C(C)(C)C)cc3)ncc2c1O`, the half-maximal inhibitory concentration (IC50) came out at 2.81 µM in assay [1] and 1.2 µM in assay [2].
For the compound `COc1ccc(-c2ccc3c(O)c(OC)ccc3n2)cc1`, the IC50 in assay [1] and in assay [2] was above 100 µM throughout.
Turning to `COc1ccc2nc(-c3ccccc3)ccc2c1O`, the results for the 50% inhibitory concentration (IC50) in assay [1] and in assay [2] were above 100 µM and 5.6 µM, respectively.
As to `COc1ccc2cc(-c3cccs3)ncc2c1O`, the IC50 is 21 µM in assay [1] and 1.02 µM in assay [2].
For `COc1ccc(-c2cc3ccc(OC)c(OC)c3cn2)cc1`, the half-maximal inhibitory concentration (IC50) is 11.1 µM in assay [1] and 2.72 µM in assay [2].
The matching figures for `COc1ccc2cc(-c3ccc(NS(=O)(=O)C4CC4)cc3)ncc2c1O`: 4.54 µM and 3.36 µM.
The like results for `COc1ccc(-c2ncc3c(O)c(OC)ccc3n2)cc1` were, in that order, above 100 µM and above 100 µM.
In the case of `COc1ccc2cc(-c3ccc(F)cc3)ncc2c1O`, the IC50 was above 100 µM in assay [1] and 51 µM in assay [2].
Regarding `Oc1ccc2cc(-c3ccc4c(c3)OCO4)ncc2c1`, the IC50 in assay [1] and in assay [2] was above 100 µM throughout.
As for `COc1ccc2cc(-c3ccc4ncsc4c3)ncc2c1OC`, the half-maximal inhibitory concentration (IC50) in assay [1] and in assay [2] was above 100 µM in each case.
Regarding `COc1ccc(-c2cc3ccc(OC)c(O)c3cn2)cc1`, the IC50 is 15.8 µM in assay [3], 0.71 µM in assay [1], 0.45 µM in assay [2] and above 30 µM in assay [4].
As to `COc1ccc2cc(-c3cccs3)ncc2c1OC`, the IC50 is 11.2 µM in assay [1] and 2.9 µM in assay [2].
For the compound `COc1ccc2cc(-c3ccc(NC(C)=O)cc3)ncc2c1O`, the IC50 is above 30 µM in assay [3], 2.11 µM in assay [1], 0.35 µM in assay [2] and above 30 µM in assay [4].
As to `COc1ccc2cc(-c3ccc4c(c3)OCO4)ncc2c1O`, the IC50 in assay [3] was above 30 µM; in assay [1], 5.1 µM; in assay [2], 0.28 µM; in assay [4], 25.8 µM.
Turning to `COc1ccc2cc(-c3ccc(NC(=O)c4ccc(C)cc4)cc3)ncc2c1O`, the IC50 in assay [1] is above 100 µM; in assay [2] it was 45.3 µM.
With `COc1cccc(C(=O)Nc2ccc(-c3cc4ccc(OC)c(O)c4cn3)cc2)c1`, the results for the IC50 in assay [1] and in assay [2] were 14.2 µM and 4.08 µM, respectively.
With `COc1ccc2cc(-c3ccc(C)cc3)ncc2c1O`, the IC50 in assay [1] and in assay [2] was above 100 µM each time.
As to `COc1ccc2cc(-c3cccnc3)ncc2c1OC`, the IC50 in assay [1] and in assay [2] was above 100 µM each time.
On to `COc1ccc2cc(-c3ccc(NC(=O)c4ccccc4)cc3)ncc2c1O`, for which the IC50 in assay [3] is above 30 µM; in assay [1], 4.45 µM; in assay [2] it was 0.19 µM; in assay [4] it was 14.6 µM.
Regarding `COc1ccc2cc(-c3ccc(NC(=O)Nc4ccccc4)cc3)ncc2c1O`, the values for the half-maximal inhibitory concentration (IC50) in assay [1] and in assay [2] were 50.5 µM and 14.3 µM, respectively.
Consider `COc1ccc2cc(-c3ccc(C(=O)Nc4ccccc4)cc3)ncc2c1O`, for which the half-inhibitory concentration (IC50) was above 30 µM in assay [3], 10.1 µM in assay [1], 0.25 µM in assay [2] and 22.3 µM in assay [4].
